Results on 19 compounds are retold here after patent US20240182445A1 (ONO PHARMACEUTICAL CO., LTD., priority 2019, published 2024).

Common to all, as to format: cell-based
The target of assay [1] is T1, human TREK-1 (Homo sapiens, UniProt O95069).
T1 construct: expressed in transfected cells
T1 sequence (O95069 1-426): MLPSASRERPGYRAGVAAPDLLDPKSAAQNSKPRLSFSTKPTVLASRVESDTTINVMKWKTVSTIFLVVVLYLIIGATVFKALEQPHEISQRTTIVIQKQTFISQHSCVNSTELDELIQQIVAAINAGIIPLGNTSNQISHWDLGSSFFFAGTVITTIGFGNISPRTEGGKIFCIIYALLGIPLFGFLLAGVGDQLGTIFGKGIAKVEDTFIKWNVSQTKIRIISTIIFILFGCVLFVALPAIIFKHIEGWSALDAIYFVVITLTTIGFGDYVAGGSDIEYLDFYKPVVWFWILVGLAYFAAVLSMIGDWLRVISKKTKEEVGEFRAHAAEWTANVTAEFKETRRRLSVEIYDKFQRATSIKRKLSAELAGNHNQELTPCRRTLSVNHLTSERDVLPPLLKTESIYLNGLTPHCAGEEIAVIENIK
Put plainly: TREK-1 Thallium (Tl+) flux assay, Method 1. The settings on record: TREK-1 Thallium (Tl+) flux assay. In a few lines: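 CHO-K1 cells stably expressing human TREK-1, loaded with Thallos dye, received compound or 0.3% DMSO vehicle for 10 min before thallium stimulus buffer. ΔRatio is fluorescence at 25 s after thallium addition over mean pre-addition fluorescence; % inhibition calculated from it.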

Assay [2] has as its target T1, human TREK-1. Put plainly: TREK-1 Manual Patch Clamp (hMPC) assay. The settings on record: CHO-K1 cells stably expressing human TREK-1; whole-cell current at 0 mV. How it is done:
The term “patch clamp technique” herein refers to the “gold standard” technique for evaluating TREK channel pharmacology. The detail method is described below.
CHO-K1 cells stably expressing human TREK-1 or HEK293 cells stably expressing human TREK-2 are plated on glass coverslips, and voltage clamped in the whole-cell configuration of the patch clamp technique. Cells were voltage clamped at a holding potential of −80 mV and the stepped to 0 mV for 500 msec. The voltage was subsequently ramped from −120 mV to +80 mV over a 500 msec duration. This step-ramp protocol was repeated every 10 sec. The bathing solution contained the following: 135 mM NaCl, 5 mM KCl, 2 mM CaCl2, 1 mM MgCl2, 5 mM D-Glucose, 10 mM HEPES, 10 mM sucrose (adjusted to pH 7.4 with NaOH, 300 mosmol/kg H2O). The pipette solution contained the following: 135 mM KCl, 2 mM MgCl2, 1 mM EGTA, 10 mM HEPES, 2 mM Na2ATP (adjusted to pH 7.35 with KOH, 285 mosmol/kg H2O). Test compounds were dissolved into the bathing solution. Experiments on TREK-2 were terminated with the addition of the control compound (tert-butyl (3-((4-(benzyloxy)-2-methylphenyl)carbamoyl)-4-chlorophenyl)carbamate) so that maximal inhibition could be determined. The effects of test compound on the currents were calculated at 0 mV using the following equations:
For CHO cells expressing TREK-1 channel: % inhibition=(1-post current/pre current)×100
The compounds shown in Table 2 were prepared in an analogous manner with the appropriate starting materials, and evaluated in our TREK-1 Manual Patch Clamp (hMPC) assay.

Assay [3] concerns the target T1, human TREK-1. Description: TREK-1 Thallium flux assay, Method 2. The settings on record: measured by Method 2 of TREK1 Thalium flux assay (footnote *12); read-out: Tl+ Assay IC50. The protocol:
CHO-K1 cells stably expressing human TREK-1 were plated in 384-well plates on the day of assay, loaded with Thallos dye. Test compounds or control compound (tert-butyl (3-((4-(benzyloxy)-2-methylphenyl)carbamoyl)-4-chlorophenyl)carbamate) or 0.3% DMSO (vehicle control) were added directly to the cell plates and incubated for 10 min, and then treated with thallium stimulus buffer to initiate thallium flux. To measure the efficacy and potency of test compounds, the change in fluorescence intensity (ΔRatio) and % inhibition were calculated using the following equations:
ΔRatio=(fluorescence intensity at 25 seconds after thallium addition)/(average of fluorescent intensity before thallium addition)

Setting [4] is: values without footnote *12 are Method 1.

As usually defined, the IC50 is the midpoint of a concentration-inhibition curve. For the compound `CC(=O)N1CCC(n2ncc(Cl)c2C(=O)Nc2ncc(C#Cc3ccc(F)cc3)cc2C)[C@H](F)C1` (stereo in doubt) [Compound 10, 1-((3R,4R)-1-acetyl-3-fluoropiperidin-4-yl)-4-chloro-N-(5-((4-fluorophenyl)ethynyl)-3-methylpyridin-2-yl)-1H-pyrazole-5-carboxamide], the figures for the half-inhibitory concentration (IC50) on human TREK-1 [1] (setting [4]) and at human TREK-1 [2] were 110 nM and 60 nM, respectively. For the compound `CC(=O)N1CC(F)(Cn2ncc(Cl)c2C(=O)Nc2ncc(C#Cc3ccccc3)cc2C)C1` [Compound 215, 1-((1-acetyl-3-fluoroazetidin-3-yl)methyl)-4-chloro-N-(3-methyl-5-(phenylethynyl)pyridin-2-yl)-1H-pyrazole-5-carboxamide], the figures for the IC50 against human TREK-1 [1] (no *^12 (Method 2) mark on these rows) and at human TREK-1 [2] were 330 nM and 130 nM, respectively. As to `CC(=O)N1CCC(n2ncc(Cl)c2C(=O)Nc2ncc(C#Cc3ccc(F)cc3)cc2F)CC1` [Compound 7, 1-(1-acetylpiperidin-4-yl)-4-chloro-N-(3-fluoro-5-((4-fluorophenyl)ethynyl)pyridin-2-yl)-1H-pyrazole-5-carboxamide], the results for the concentration for half-maximal inhibition (IC50) on human TREK-1 [1] (setting [4]) and against human TREK-1 [2] were 140 nM and 30 nM, respectively.

On to `CC(=O)N[C@H]1CC[C@@H](n2ncc(Cl)c2C(=O)Nc2ncc(C#Cc3ccc(F)cc3)cc2C)CC1` [Compound 14, 1-(cis-4-acetamidocyclohexyl)-4-chloro-N-(5-((4-fluorophenyl)ethynyl)-3-methylpyridin-2-yl)-1H-pyrazole-5-carboxamide], for which the figures for the IC50 against human TREK-1 [1] (setting [4]) and against human TREK-1 [2] were 260 nM and 2 nM, respectively.

For the compound `CC(=O)N1CCC(n2ncc(Cl)c2C(=O)Nc2ncc(C#Cc3ccccc3)cc2F)CC1` [Compound 6, 1-(1-acetylpiperidin-4-yl)-4-chloro-N-(3-fluoro-5-(phenylethynyl)pyridin-2-yl)-1H-pyrazole-5-carboxamide], the 50% inhibitory concentration (IC50) against human TREK-1 [1] (setting [4]) and against human TREK-1 [2] was 70 nM throughout. In the case of `O=C(Nc1ncc(C#Cc2ccccc2)cc1F)c1c(Cl)cnn1C[C@H]1COCCO1` [Compound 4, (S)-1-((1,4-dioxan-2-yl)methyl)-4-chloro-N-(3-fluoro-5-(phenylethynyl)pyridin-2-yl)-1H-pyrazole-5-carboxamide], the concentration for half-maximal inhibition (IC50) against human TREK-1 [1] (setting [4]) worked out at 220 nM; on human TREK-1 [2], 70 nM. In the case of `CC(=O)N1CCC(n2ncc(Cl)c2C(=O)Nc2ncc(C#Cc3ccc(F)cc3)cc2C)CC1` [Compound 8, 1-(1-acetylpiperidin-4-yl)-4-chloro-N-(5-((4-fluorophenyl)ethynyl)-3-methylpyridin-2-yl)-1H-pyrazole-5-carboxamide], the values for the IC50 against human TREK-1 [1] (setting [4]) and against human TREK-1 [2] were 200 nM and 90 nM, respectively. For `Cc1cc(C#Cc2ccccc2)cnc1NC(=O)c1c(Cl)cnn1CC1COCCO1` (stereo not drawn) [Compound 1, 1-((1,4-dioxan-2-yl)methyl)-4-chloro-N-(3-methyl-5-(phenylethynyl)pyridin-2-yl)-1H-pyrazole-5-carboxamide] the same measures were 670 nM and 170 nM. In the case of `CC(=O)N1CCC(F)(Cn2ncc(Cl)c2C(=O)Nc2ncc(C#Cc3ccccc3)cc2C)CC1` [Compound 15, 1-((1-acetyl-4-fluoropiperidin-4-yl)methyl)-4-chloro-N-(3-methyl-5-(phenylethynyl)pyridin-2-yl)-1H-pyrazole-5-carboxamide], the values for the half-maximal inhibitory concentration (IC50) against human TREK-1 [1] (setting [4]) and against human TREK-1 [2] were 400 nM and 290 nM, respectively. `O=C(Nc1ncc(C#Cc2ccccc2)cc1F)c1c(Cl)cnn1C1CCN(C(=O)C2COCCO2)CC1` (stereo not drawn) [Compound 11, 1-(1-(1,4-dioxane-2-carbonyl)piperidin-4-yl)-4-chloro-N-(3-fluoro-5-(phenylethynyl)pyridin-2-yl)-1H-pyrazole-5-carboxamide]: the values for the IC50 against human TREK-1 [1] (setting [4]) and at human TREK-1 [2] were 120 nM and 100 nM, respectively. For the compound `CC(=O)N[C@H]1CC[C@@H](n2ncc(Cl)c2C(=O)Nc2ncc(C#Cc3ccccc3)cc2F)CC1` [Compound 13, 1-(cis-4-acetamidocyclohexyl)-4-chloro-N-(3-fluoro-5-(phenylethynyl)pyridin-2-yl)-1H-pyrazole-5-carboxamide], the values for the IC50 at human TREK-1 [1] (setting [4]) and at human TREK-1 [2] were 120 nM and 60 nM, respectively.

In the case of `Cc1cc(C#Cc2ccccc2)cnc1NC(=O)c1c(Cl)cnn1[C@@H]1CCN(C(=O)C2CC2)C1` [Compound 455, 4-chloro-1-[(3R)-1-(cyclopropanecarbonyl)pyrrolidin-3-yl]-N-[3-methyl-5-(phenylethynyl)pyridin-2-yl]-1H-pyrazole-5-carboxamide], at human TREK-1 [3], the half-inhibitory concentration (IC50) is 140 nM. In the case of `CC(=O)N1CCC([C@H](C)n2ncc(Cl)c2C(=O)Nc2ncc(C#Cc3ccccc3)cc2C)CC1` [Compound 16, (S)-1-(1-(1-acetylpiperidin-4-yl)ethyl)-4-chloro-N-(3-methyl-5-(phenylethynyl)pyridin-2-yl)-1H-pyrazole-5-carboxamide], the values for the 50% inhibitory concentration (IC50) against human TREK-1 [1] (setting [4]) and at human TREK-1 [2] were 100 nM and 160 nM, respectively. On to `Cc1cc(C#Cc2ccccc2)cnc1NC(=O)c1c(Cl)cnn1CC1CCOCC1` [Compound 2, 4-chloro-N-(3-methyl-5-(phenylethynyl)pyridin-2-yl)-1-((tetrahydro-2H-pyran-4-yl)methyl)-1H-pyrazole-5-carboxamide], for which the IC50 turned out to be 200 nM against human TREK-1 [1] (setting [4]) and 60 nM on human TREK-1 [2]. Regarding `Cc1cc(C#Cc2ccccc2)cnc1NC(=O)c1c(Cl)cnn1C1CCn2nccc2C1` (stereo not drawn) [Compound 9, 4-chloro-N-(3-methyl-5-(phenylethynyl)pyridin-2-yl)-1-(4,5,6,7-tetrahydropyrazolo[1,5-a]pyridin-5-yl)-1H-pyrazole-5-carboxamide], the figures for the concentration for half-maximal inhibition (IC50) on human TREK-1 [1] (setting [4]) and against human TREK-1 [2] were 140 nM and 20 nM, respectively. Turning to `CC(=O)N1CC(F)(Cn2ncc(Cl)c2C(=O)Nc2ncc(C#Cc3ccccc3)cc2F)C1` [Compound 140, 1-((1-acetyl-3-fluoroazetidin-3-yl)methyl)-4-chloro-N-(3-fluoro-5-(phenylethynyl)pyridin-2-yl)-1H-pyrazole-5-carboxamide], the IC50 amounted to 220 nM on human TREK-1 [1] (setting [4]) and 130 nM on human TREK-1 [2].

For `Cc1cc(C#Cc2ccccc2)cnc1NC(=O)c1c(Cl)cnn1[C@H]1CCn2nccc2C1` (single isomer, unassigned) [Compound 456, 4-chloro-N-[3-methyl-5-(phenylethynyl)pyridin-2-yl]-1-[(5S)-4,5,6,7-tetrahydropyrazolo[1,5-a]pyridin-5-yl]-1H-pyrazole-5-carboxamide or 4-chloro-N-[3-methyl-5-(phenylethynyl)pyridin-2-yl]-1-[(5R)-4,5,6,7-tetrahydropyrazolo[1,5-a]pyridin-5-yl]-1H-pyrazole-5-carboxamide], the IC50 on human TREK-1 [3] came out at 120 nM. For the compound `CC(=O)N1CCC(n2ncc(Cl)c2C(=O)Nc2ncc(C#Cc3ccccc3)cc2C)CC1` [Compound 5, 1-(1-acetylpiperidin-4-yl)-4-chloro-N-(3-methyl-5-(phenylethynyl)pyridin-2-yl)-1H-pyrazole-5-carboxamide], the values for the IC50 against human TREK-1 [1] (setting [4]) and at human TREK-1 [2] were 70 nM and 60 nM, respectively. For `Cc1cc(C#Cc2ccccc2)cnc1NC(=O)c1c(Cl)cnn1[C@@H]1CCOC1` [Compound 3, (R)-4-chloro-N-(3-methyl-5-(phenylethynyl)pyridin-2-yl)-1-(tetrahydrofuran-3-yl)-1H-pyrazole-5-carboxamide] the same measures were 360 nM and 530 nM.
